What was measured:
[1] = tested on: GLXMAW (Soybean, Williams); assay: Preemergence herbicidal evaluation; format: in vivo, Glycine max, (L.) Merr. cv Williams; settings: rated 4-5 weeks after treatment
Excerpt: (§1) Results of herbicide evaluation are expressed on a rating scale (0-9). The scale is based upon a visual observation of plant stand, vigor, malformation, size, chlorosis and overall plant appearance as compared with a control.
(§2) The preemergence herbicidal activity of the test compounds of the present invention is exemplified by the following tests in which the seeds of a variety of monocotyledonous and dicotyledonous plants are separately mixed with potting soil and planted on top of approximately one inch of soil in separate pint cups. After planting, the cups are sprayed with the selected aqueous acetone solution containing test compound in sufficient quantity to provide the equivalent of about 0.0156 to 0.500 kg per hectare of test compound per cup. The treated cups are then placed on greenhouse benches, watered and cared for in accordance with conventional greenhouse procedures. From four to five weeks after treatment, the tests are terminated and each cup is examined and rated according to the rating system provided in Example 37.
(§3) The compounds evaluated are reported by compound number given in Example 37.

ORYSAT (Rice, Tebonnet) = assay: Preemergence herbicidal evaluation; format: in vivo, Oryza sativa, (L.) Tebonnet; settings: rated 4-5 weeks after treatment
Outline: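 Each species is sown separately in potting soil over roughly an inch of soil before any emergence. The soil surface then receives an aqueous acetone spray delivering about 0.0156 to 0.500 kg/ha of compound. After four to five weeks, injury is scored from 0 to 9 relative to a control.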

CASOB (Sicklepod) = assay: Postemergence herbicidal evaluation; format: in vivo, Cassia obtusifolia; settings: for Herbicidal rating CASOB / CASOB herbicidal rating: postemergence
Outline: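 Herbicidal effect was judged by eye on a 0–9 scale covering stand, vigor, deformity, size and chlorosis, compared with controls, four to five weeks after seedlings about two weeks old were sprayed (40 psi, ~0.0156–0.500 kg/ha).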

[2] = tested on: TRZAWR (Wheat, Winter, cv Riband); assay: Preemergence herbicidal evaluation; format: in vivo, Triticum aestivum; settings: rated 4-5 weeks after treatment
Excerpt: as §1, §2, §3

[3] = tested on: SAGPY (Arrowhead (Pygmaea)); assay: Preemergence weed control under flooded paddy conditions; format: in vivo, Sagittaria pygmaea; settings: rated 3-4 weeks after treatment
Outline: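 Greenhouse paddy assay. Acetone/water (50/50 v/v) solutions dosed into flood water, equivalent to about 0.0313 to 0.500 kg/ha active ingredient, over seeds planted 0.5 cm deep in silt loam. Score: 0-9 visual, based on stand, vigor, malformation, size and chlorosis, 3 to 4 weeks after treatment.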

| Compound | Preemergence herbicidal rating GLXMAW ([1]; rate 0.0156 kg/ha) | Preemergence herbicidal rating GLXMAW ([1]; rate 0.0313 kg/ha) | Preemergence herbicidal rating GLXMAW ([1]; rate 0.0625 kg/ha) | Preemergence herbicidal rating GLXMAW ([1]; rate 0.1250 kg/ha) | Preemergence herbicidal rating GLXMAW ([1]; rate 0.2500 kg/ha) | Preemergence herbicidal rating ORYSAT (ORYSAT (Rice, Tebonnet); rate 0.0156 kg/ha) | Preemergence herbicidal rating ORYSAT (ORYSAT (Rice, Tebonnet); rate 0.0313 kg/ha) | Preemergence herbicidal rating ORYSAT (ORYSAT (Rice, Tebonnet); rate 0.0625 kg/ha) | Preemergence herbicidal rating ORYSAT (ORYSAT (Rice, Tebonnet); rate 0.1250 kg/ha) | Preemergence herbicidal rating ORYSAT (ORYSAT (Rice, Tebonnet); rate 0.2500 kg/ha) | Preemergence herbicidal rating TRZAWR ([2]; rate 0.0156 kg/ha) | Preemergence herbicidal rating TRZAWR ([2]; rate 0.0313 kg/ha) | Preemergence herbicidal rating TRZAWR ([2]; rate 0.0625 kg/ha) | Preemergence herbicidal rating TRZAWR ([2]; rate 0.1250 kg/ha) | Preemergence herbicidal rating TRZAWR ([2]; rate 0.2500 kg/ha) | herbicidal effect rating, SAGPY ([3]; 0.0313 kg/ha) | herbicidal effect rating, SAGPY ([3]; 0.0625 kg/ha) | herbicidal effect rating, SAGPY ([3]; 0.1250 kg/ha) | herbicidal effect rating, SAGPY ([3]; 0.2500 kg/ha) | other results |
| --- | --- | --- | --- | --- | --- | --- | --- | --- | --- | --- | --- | --- | --- | --- | --- | --- | --- | --- | --- | --- |
| Cn1c(C(F)(F)F)cc(=O)n(-c2cc(N=C3SCC(=O)N3CC(=O)OC3CCCC3)c(Cl)cc2F)c1=O [Compound 120, Cyclopentyl 2-{{2-chloro-5-[3,6-dihydro-3-methyl-2,6-dioxo-4-(trifluoromethyl)-1(2H)-pyrimidinyl]-4-fluorophenyl}imino}-4-oxo-3-thiazolidineacetate] | 0.0 | 0.0 | 0.0 | 0.0 | 3.0 | 0.0 | 0.0 | 0.0 | 0.0 | 0.0 | 0.0 | 0.0 | 0.0 | 0.0 | 4.0 | 0.0 | 0.0 | 2.0 | 7.5 | Herbicidal rating CASOB (CASOB (Sicklepod); rate 0.0156 kg/ha): 3.0; Herbicidal rating CASOB (CASOB (Sicklepod); rate 0.0313 kg/ha): 5.0; Herbicidal rating CASOB (CASOB (Sicklepod); rate 0.0625 kg/ha): 8.0 |
| COCCCN1C(=O)CSC1=Nc1cc(-n2c(=O)cc(C(F)(F)F)n(C)c2=O)c(F)cc1Cl [Compound 172, 3-{4-Chloro-2-fluoro-5-{[3-(3-methoxypropyl)-4-oxo-2-thiazolidinylidene]amino}phenyl}-1-methyl-6-(trifluoromethyl)-2,4(1H, 3H)-pyrimidinedione] | – | – | – | – | – | – | – | – | – | – | – | – | – | – | – | 6.0 | 6.0 | 9.0 | 9.0 | Preemergence herbicidal rating GLXMAW ([1]; 0.0156 kg/ha): 1.0; Preemergence herbicidal rating GLXMAW ([1]; 0.0313 kg/ha): 2.0; Preemergence herbicidal rating GLXMAW ([1]; 0.0625 kg/ha): 7.0; Preemergence herbicidal rating GLXMAW ([1]; 0.1250 kg/ha): 9.0; Preemergence herbicidal rating GLXMAW ([1]; 0.2500 kg/ha): 9.0; Preemergence herbicidal rating ORYSAT (ORYSAT (Rice, Tebonnet); 0.0156 kg/ha): 2.0; Preemergence herbicidal rating ORYSAT (ORYSAT (Rice, Tebonnet); 0.0313 kg/ha): 5.0; Preemergence herbicidal rating ORYSAT (ORYSAT (Rice, Tebonnet); 0.0625 kg/ha): 7.0; Preemergence herbicidal rating ORYSAT (ORYSAT (Rice, Tebonnet); 0.1250 kg/ha): 7.0; Preemergence herbicidal rating ORYSAT (ORYSAT (Rice, Tebonnet); 0.2500 kg/ha): 8.0; Postemergence herbicidal rating CASOB (CASOB (Sicklepod); Rate 0.0313 kg/ha): 2.0; Postemergence herbicidal rating CASOB (CASOB (Sicklepod); Rate 0.0625 kg/ha): 2.0; Postemergence herbicidal rating CASOB (CASOB (Sicklepod); rate 0.0156 kg/ha): 1.0; Preemergence herbicidal rating TRZAWR ([2]; 0.0156 kg/ha): 2.0; Preemergence herbicidal rating TRZAWR ([2]; 0.0313 kg/ha): 3.0; Preemergence herbicidal rating TRZAWR ([2]; 0.0625 kg/ha): 7.0; Preemergence herbicidal rating TRZAWR ([2]; 0.1250 kg/ha): 7.0; Preemergence herbicidal rating TRZAWR ([2]; 0.2500 kg/ha): 9.0 |
| CCOC(=O)[C@H](Cc1ccccc1)N1C(=O)CSC1=Nc1cc(-n2c(=O)cc(C(F)(F)F)n(C)c2=O)c(F)cc1Cl [Compound 80, Ethyl α-benzyl-2-{{2-chloro-5-[3,6-dihydro-3-methyl-2,6-dioxo-4-(trifluoromethyl)-1(2H)-pyrimidinyl]-4-fluorophenyl}imino}-4-oxo-3-thiazolidineacetate, L-] | 0.0 | 0.0 | 1.0 | 1.0 | 1.0 | 0.0 | 0.0 | 0.0 | 1.0 | 1.0 | 0.0 | 0.0 | 0.0 | 2.0 | 1.0 | – | – | – | – | CASOB herbicidal rating (CASOB (Sicklepod); rate 0.0158 kg/ha): 1.0; CASOB herbicidal rating (CASOB (Sicklepod); rate 0.0315 kg/ha): 5.0; CASOB herbicidal rating (CASOB (Sicklepod); rate 0.0630 kg/ha): 9.0; SAGPY herbicidal effect rating ([3]; 0.0313 kg/ha): 0.0; SAGPY herbicidal effect rating ([3]; 0.0625 kg/ha): 0.0; SAGPY herbicidal effect rating ([3]; 0.1250 kg/ha): 0.0; SAGPY herbicidal effect rating ([3]; 0.2500 kg/ha): 0.0 |

Source: patent US20020137929A1, “1 - (3-heterocyclylphenyl) isothiourea, -isourea, -guanidine and -amidine herbicidal agents” (Intellectual Property Department, BASF Aktiengesellschaft, priority 1998, published 2002)
